Data taken from PMC10167355, “Optimized spirooxindole-pyrazole hybrids targeting the p53-MDM2 interplay induce apoptosis and synergize with doxorubicin in A549 cells” (Scientific Reports, 2023).
“Also recorded” adds a separate entry of the source.

What was measured:
p53 = test: Western blot of p53 level in A549 cells; assay type: cell-based, human; conditions: for p53 induction, dose–response: A549, 24 h, 0.01, 0.1, 1, 10 µM; for p53 level, single agent / p53 level, combined treatment compared to doxorubicin alone: A549; for p53 level, single agent: 0.2 µM derivative alone or 14 µM doxorubicin alone; for p53 level, combined treatment compared to doxorubicin alone: 0.2 µM derivative plus 14 µM doxorubicin; for p53 level: A549, drug concentration equivalent to IC75 (30 µM), fold over mock
Experimental: (§1) A549 cells were treated with different concentrations of the molecules as indicated. Cell extracts were prepared as described. Ten-20 μg of total proteins were resolved on 4–15% Mini protean TGX precast gels (Bio-Rad) and transferred to nitrocellulose membrane using 1704158 Trans-Blot Turbo Mini NC Transfer Packs (Bio-Rad) in a Trans-Blot Turbo apparatus (Bio-Rad). Membranes were blocked with 5% non-fat dry milk in 0.1% Tween-20 in PBS for 1 h, then incubated for 1 h at room temperature or overnight at 4 °C with the appropriate primary antibody. The following antibodies were employed: anti-p53 (DO-1, sc-126, Santa Cruz Biotechnology, 1:20.000), anti-p21 (2946, Cell Signaling, 1:2000), anti-MDM2 (SMP14, sc-965, Santa Cruz Biotechnology, 1:200), anti β-actin (AC-74, Sigma-Aldrich, 1:30.000); secondary anti-mouse IgG peroxidase conjugate (A9044, Sigma–Aldrich, 1:10.000) and secondary anti-rabbit peroxidase conjugate (A9169, Sigma-Aldrich, 1: 12.000). Detection was carried out with ECL FAST PICO (ECL-1002, Immunological Sciences, Roma, Italy). Chemiluminescence was analysed by Alliance LD, UVITEC Cambridge (Cambridge, UK).

MDM2 = test: Western blot of MDM2 level in A549 cells; assay type: cell-based, human; conditions: for MDM2 level, single agent / MDM2 level, combined treatment compared to doxorubicin alone: A549; for MDM2 level, single agent: 0.2 µM derivative alone or 14 µM doxorubicin alone; for MDM2 level, combined treatment compared to doxorubicin alone: 0.2 µM derivative plus 14 µM doxorubicin; for MDM2 level: A549, drug concentration equivalent to IC75 (30 µM), fold over mock
Experimental: as §1

p21 = test: Western blot of p21 level in A549 cells; assay type: cell-based, human; conditions: for p21 level, single agent / p21 level, combined treatment compared to doxorubicin alone: A549; for p21 level, single agent: 0.2 µM derivative alone or 14 µM doxorubicin alone; for p21 level, combined treatment compared to doxorubicin alone: 0.2 µM derivative plus 14 µM doxorubicin
Experimental: as §1

A2780 (ovarian) = test: MTT antiproliferative assay, A2780; assay type: cell-based; conditions: Homo sapiens, 72 h treatment, mean ± SD of 5–6 data
Experimental: (§2) Human tumor cell lines A2780 [ovary, adenocarcinoma, accession number HTL98008, obtained from Interlab Cell Line Collection (ICLC), Genova, Italy], A549 (lung, carcinoma, HTL03001, ICLC), MDA-MB-453 (breast, carcinoma, HTL01013, ICLC), and HepG2 (liver, carcinoma, HB-8065, American Type Culture Collection, Rockville, MA, USA ) were plated at 1.4 × 10^4/ml, 0.65 × 10^4/mL, 4.7 × 10^4/mL, and 1.0 × 10^4/mL, respectively, in 180 μL complete medium (RPMI 1640 for A2780 and A549 and DMEM for MDA-MB-453 and HepG2) into flat-bottomed 96-well microtiter plates. After 6–8 h cells were treated with 20 μL containing five 1:10 fold concentrations of our compounds diluted in FCS containing 3% DMSO. As normal non-cancer cell targets we used peripheral blood lymphocytes obtained from three healthy volunteers, isolated by gradient centrifugation (Lympholyte-H Cell Separation Media, EuroClone, Pero, MI, Italy) and stimulated with 1% phytohemagglutinin and 100 U/ml recombinant IL-2. One week after stimulation cells were ready for use at 15,000/well.
(§3) In both cases, after 72 h treatment, the MTT assay was applied as described elsewhere. The IC50 values were calculated from the analysis of single concentration–response curves, each final value is the mean of 5–6 experiments. IC100 and IC75 were extrapolated from the mean concentration–response curves.

HepG2 (liver) = test: MTT antiproliferative assay, HepG2; assay type: cell-based; conditions: Homo sapiens, 72 h treatment, mean ± SD of 5–6 data
Experimental: as §2, §3

activated PBL = test: MTT assay on normal PBL activated with PHA and recombinant IL-2; assay type: cell-based; conditions: Homo sapiens, mean ± SD of 4–6 IC50 values
Experimental: as §2
In both cases, after 72 h treatment, the MTT assay was applied as described elsewhere. […] IC100 and IC75 were extrapolated from the mean concentration–response curves.

A549 cells = test: Annexin-V-FITC / propidium iodide apoptosis assay; assay type: cell-based, human; conditions: A549, compounds at their specific IC75s, three days
Experimental: The induction of apoptosis was evaluated in A549 cells characterized by wild-type p53 and MDM2 proteins. They were plated at the opportune concentration (see above) into 25 cm^2 flasks in 10 mL complete medium. After 6–8 h the compounds were added at their specific IC75s, as previously calculated by the MTT assay.
All floating and adherent cells were harvested three days later, washed with normal saline buffer, and apoptosis determined by double staining with Annexin-V-FITC and propidium iodide (PI) (rh AnnexinV/FITC Kit, Bender MedSystem GmbH, Vienna, Austria). Briefly, 0.5 × 10^6 cells were resuspended in binding buffer 1× and stained with 5 μL of Annexin-V-FITC. After 10 min incubation 10 μL of PI were added and samples incubated for 5 min. Samples were immediately analyzed using a Flow Cytometer (FACScan, BD Biosciences, Milano, Italy) with dedicated software.

[1] = system: A2780, A549, HepG2, MDA-MB-453; test: MTT assay, panel of four human cancer cell lines taken together; assay type: cell-based; conditions: all four cell lines, 30 μM = arbitrary limit of pharmacological relevance
Experimental: After 6–8 h cells were treated with 20 μL containing five 1:10 fold concentrations of our compounds diluted in FCS containing 3% DMSO. As normal non-cancer cell targets we used peripheral blood lymphocytes obtained from three healthy volunteers, isolated by gradient centrifugation (Lympholyte-H Cell Separation Media, EuroClone, Pero, MI, Italy) and stimulated with 1% phytohemagglutinin and 100 U/ml recombinant IL-2. One week after stimulation cells were ready for use at 15,000/well. In both cases, after 72 h treatment, the MTT assay was applied as described elsewhere. […] IC100 and IC75 were extrapolated from the mean concentration–response curves.

A549 (lung) = test: MTT antiproliferative assay, A549; assay type: cell-based; conditions: Homo sapiens, 72 h treatment, mean ± SD of 5–6 data
Experimental: as §2, §3

Work on `Cc1ccc(C2C3CSCN3C3(C(=O)Nc4ccccc43)C2C(=O)c2cnn(-c3ccccc3)c2C)cc1` (centres unmarked) yielded a melting point of 134 to 135 °C.

With “7'-(Ferrocin-2-yl)-6'-(5-methyl-1-phenyl-1H-pyrazole-4-carbonyl)-3',6',7',7a'-tetrahydro-1'H-spiro[indoline-3,5'-pyrrolo[1,2-c]thiazol]-2-one [8d]” the “p53 induction, dose–response” value (p53) was “able to induce p53 only at high concentrations”, the “p53 level, single agent” value (p53) was “did not increase” and the “p53 level, combined treatment compared to doxorubicin alone” value (“p53 level … compared to doxorubicin alone” below) (p53) was “no further increases”. The “MDM2 level, single agent” value (MDM2) was “slight but not significant MDM2 increase”, the “MDM2 level, combined treatment compared to doxorubicin alone” value (“MDM2 level … compared to doxorubicin alone” for short) (MDM2) was “no further increases” and the “p21 level, single agent” value (p21) was “did not increase”. The “p21 level, combined treatment compared to doxorubicin alone” value (shortened to “p21 level … compared to doxorubicin alone”) (p21) was “no further increases”.

`Cc1c(C(=O)C2C(c3ccc(Cl)cc3Cl)C3CSCN3C23C(=O)Nc2ccccc23)cnn1-c1ccccc1` (centres unmarked) [8h, 7'-(2,4-Dichlorophenyl)-6'-(5-methyl-1-phenyl-1H-pyrazole-4-carbonyl)-1',6',7',7a'-tetrahydro-3'H-spiro[indoline-3,5'-pyrrolo[1,2-c]thiazol]-2-one] gave an IC50 (A2780 (ovarian)) of 10.3 µM, an IC50 (HepG2 (liver)) of 18.6 µM and an IC50 (activated PBL; PBL A) of 53.6 ± 2.1 µM. The IC50 (activated PBL; PBL B) was 57.4 ± 5.5 µM, the IC50 (activated PBL; PBL C) was 65.8 ± 23.2 µM and the apoptotic activity (A549 cells) was “slightly trigger apoptosis”. The “p53 induction, dose–response” value (p53) was “able to induce p53 only at high concentrations; also recorded: induce p53, although not at high level and only at high concentrations”, the “p53 level, single agent” value (p53) was “did not increase” and the “p53 level … compared to doxorubicin alone” value (p53) was “no further increases; also recorded: did not trigger a further”. The “MDM2 level, single agent” value (MDM2) was “slight but not significant MDM2 increase”, the “MDM2 level … compared to doxorubicin alone” value (MDM2) was “no further increases; also recorded: did not trigger a further” and the “p21 level, single agent” value (p21) was “did not increase”. For the same molecule, the “p21 level … compared to doxorubicin alone” value (p21) was “no further increases” and the melting point was 141 to 142 °C.

With `Cc1c(C(=O)C2C(c3ccccn3)C3CSCN3C23C(=O)Nc2ccccc23)cnn1-c1ccccc1` (centres unmarked) [8l, 6'-(5-Methyl-1-phenyl-1H-pyrazole-4-carbonyl)-7'-(pyridin-2-yl)-3',6',7',7a'-tetrahydro-1'H-spiro[indoline-3,5'-pyrrolo[1,2-c]thiazol]-2-one] the IC50 [1] was ≥ 30 µM and the melting point was 135 to 136 °C.

In the case of `Cc1c(C(=O)C2C(c3ccc([N+](=O)[O-])cc3)C3CSCN3C23C(=O)Nc2ccccc23)cnn1-c1ccccc1` (centres unmarked), the melting point is reported as 142 to 143 °C.

`Cc1c(C(=O)C2C(c3cccc(Br)c3)C3CSCN3C23C(=O)Nc2ccccc23)cnn1-c1ccccc1` (centres unmarked) [8m, 7'-(3-Bromophenyl)-6'-(5-methyl-1-phenyl-1H-pyrazole-4-carbonyl)-3',6',7',7a'-tetrahydro-1'H-spiro[indoline-3,5'-pyrrolo[1,2-c]thiazol]-2-one] showed an IC50 (A549 (lung)) of 17.7 µM, an IC50 (activated PBL; PBL A) of 48.8 ± 4.9 µM and an IC50 (activated PBL; PBL B) of 36.1 ± 14.7 µM. For the same molecule, the IC50 (activated PBL; PBL C) was 68.1 ± 23.8 µM, the apoptotic activity (A549 cells) was “highly significant apoptotic activity; also recorded: considerable high level of apoptosis” and the p53 level (p53) was “did not induce any changes; also recorded: did not induce p53”. The “MDM2 modulation, dose–response” value (MDM2; A549, 24 h, 0.01, 0.1, 1, 10 µM) was “dose-dependent down regulation of MDM2”, the MDM2 level (MDM2) was “downmodulated MDM2; also recorded: clear down modulation; also recorded: down regulation of MDM2” and the melting point was 132 to 133 °C.

With `COc1cccc2c1C(=O)c1c(O)c3c(c(O)c1C2=O)C[C@@](O)(C(=O)CO)C[C@@H]3O[C@H]1C[C@H](N)[C@H](O)[C@H](C)O1` [Doxorubicin, doxorubicin] the “p53 level, single agent” value (p53) was “clearly triggered the induction”, the “MDM2 level, single agent” value (MDM2) was “strongly decreased” and the “p21 level, single agent” value (p21) was “clearly triggered the induction”.

With `COc1ccc(C2C3CSCN3C3(C(=O)Nc4ccccc43)C2C(=O)c2cnn(-c3ccccc3)c2C)cc1` (centres unmarked) the melting point was 109 to 110 °C.

With `Cc1c(C(=O)C2C(c3cccc([N+](=O)[O-])c3)C3CSCN3C23C(=O)Nc2ccccc23)cnn1-c1ccccc1` (centres unmarked) the melting point was 146 to 147 °C.

With `Cc1c(C(=O)C2C(c3ccccc3)C3CSCN3C23C(=O)Nc2ccccc23)cnn1-c1ccccc1` (centres unmarked) the melting point was 229 to 230 °C.

In the case of `Cc1c(C(=O)C2C(c3ccc(Cl)cc3)C3CSCN3C23C(=O)Nc2ccccc23)cnn1-c1ccccc1` (centres unmarked), the melting point is reported as 122 to 123 °C.

With `Cc1c(C(=O)C2C(c3cccc(F)c3)C3CSCN3C23C(=O)Nc2ccccc23)cnn1-c1ccccc1` (centres unmarked) [8j, 7'-(3-Fluorophenyl)-6'-(5-methyl-1-phenyl-1H-pyrazole-4-carbonyl)-1',6',7',7a'-tetrahydro-3'H-spiro[indoline-3,5'-pyrrolo[1,2-c]thiazol]-2-one] the IC50 (activated PBL; PBL A) was 54 ± 2.5 µM, the IC50 (activated PBL; PBL B) was 55 ± 3.3 µM and the IC50 (activated PBL; PBL C) was 61.2 ± 19.7 µM. For the same molecule, the apoptotic activity (A549 cells) was “slightly trigger apoptosis”, the “p53 induction, dose–response” value (p53) was “able to induce p53 only at high concentrations; also recorded: induce p53, although not at high level and only at high concentrations” and the “p53 level, single agent” value (p53) was “did not increase”. The “p53 level … compared to doxorubicin alone” value (p53) was “no further increases; also recorded: did not trigger a further”, the “MDM2 level, single agent” value (MDM2) was “slight but not significant MDM2 increase” and the “MDM2 level … compared to doxorubicin alone” value (MDM2) was “no further increases; also recorded: did not trigger a further”. For the same molecule, the “p21 level, single agent” value (p21) was “did not increase”, the “p21 level … compared to doxorubicin alone” value (p21) was “no further increases” and the melting point was 125 to 126 °C.

`Cc1c(C(=O)C2C(/C=C/c3ccccc3)C3CSCN3C23C(=O)Nc2ccccc23)cnn1-c1ccccc1` (centres unmarked) showed a melting point of 144 to 145 °C.

For `Cc1c(C(=O)C2C(c3ccco3)C3CSCN3C23C(=O)Nc2ccccc23)cnn1-c1ccccc1` (centres unmarked) [8b, 7'-(Furan-2-yl)-6'-(5-methyl-1-phenyl-1H-pyrazole-4-carbonyl)-3',6',7',7a'-tetrahydro-1'H-spiro[indoline-3,5'-pyrrolo[1,2-c]thiazol]-2-one], the apoptotic activity (A549 cells) was “significantly trigger apoptosis”, the apoptotic activity (A549 cells; listed as 8t) was “highly significant apoptotic activity” and the p53 level (p53) was “significantly increased; also recorded: able to activate p53”. The MDM2 level (MDM2) was “an increase”, the p21 level (p21; A549, drug concentration equivalent to IC75 (30 µM), fold over mock) was “an increase” and the IC50 [1] was ≥ 30 µM. For the same molecule, the melting point was 227 to 228 °C.

In the case of `Cc1cccc(C2C3CSCN3C3(C(=O)Nc4ccccc43)C2C(=O)c2cnn(-c3ccccc3)c2C)c1` (centres unmarked), the melting point is reported as 128 to 130 °C.
